These results are taken from US20180092357A1, “SYNERGISTIC PRESERVATIVE COMPOSITIONS” (ISP Investments LLC, priority 2015, published 2018).

Several values for one entry are separate records, joined by “and”; a condition that tells them apart may be missing. Equal values may be shown once.

Common to all, as to assay type: cell-based
In assay [1] the test system is B. cepacia (ATCC 25416). Description: MIC and synergy test (Kull method). Particulars: compound or premix acting alone. As for the experimental part:
(§1) The cumulative synergistic activity of propylene carbonate, organic compounds/preservative compounds are performed against selected microbial strains.
(§2) Tryptic Soy Broth (TSB) media was used for bacterial evaluations and Yeast Malt Broth (YMB) for fungal evaluations. The compounds were added to the media and serially diluted. After serially diluting the media, 100 μl of a suspension of the testing bacteria or fungi were added to a final concentration of approximately […]. The inoculated media was then incubated at 32° C. for 2-5 days for bacteria or at 28° C. for 3-7 days for fungi.
(§3) The lowest concentration of each compound or mixture or compounds to inhibit visible growth was taken as the minimum inhibitory concentration (MIC). The MIC was taken as end points of activity. End points for the mixture of compound A (Propylene Carbonate) and compound B (organic compounds/conventional preservative) were then compared with the end points for the pure active ingredient alone.
(§4) Synergism was determined by a commonly used and accepted method described by Kull A. C.; Eisman, P. C.; Sylwestrowicz, H. D. and Mayer, R. L. 1961. Applied Microbiology, 9:538-541 using the ratio determine by:
(§5) • QA is the concentration of compound A in PPM, acting alone, which produced an end point. • Qa is the concentration of compound A in PPM, in the mixture, which produced an end point. • QB is the concentration of compound B in PPM, acting alone, which produced an end point. • Qb is the concentration of compound B in PPM, in the mixture, which produced an end point
(§6) When the sum of Qa/QA+Qb/QB is greater than one, antagonism is indicated. When the sum is equal to one, additive is indicated.
(§7) The results comprise following parameters: 1. Test organism (bacteria or fungi), 2. The end-point activity in % measured by MIC for the compound A alone (QA), for compound A in the mixture (Qa), for compound B alone (QB), for compound B in the mixture (Qb), 3. The ratio of Propylene carbonate or combinations of propylene carbonate and an organic compound (compound A) to organic compound (compound B) in that particular combination and the synergy index (SI) based on the formula SI=Qa/QA+Qb/QB.

Assay [2] has as its system E. coli (ATCC 8739). Description: MIC and synergy test (Kull method). Particulars: compound or premix acting alone. As for the experimental part:
as §1, §2, §3, §4, §5, §6, §7

The subject of assay [3] is S. aureus (ATCC 6538). Put plainly: MIC and synergy test (Kull method). The following applies: compound or premix acting alone. As for the experimental part:
as §1, §2, §3, §4, §5, §6, §7

Assay [4] deals with A. brasilensis (ATCC 16404). Put plainly: MIC and synergy test (Kull method). The following applies: compound or premix acting alone. On the procedure:
as §1, §2, §3, §4, §5, §6, §7

The subject of assay [5] is P. aeruginosa (ATCC 9027). Put plainly: MIC and synergy test (Kull method). Particulars: compound or premix acting alone. On the procedure:
as §1, §2, §3, §4, §5, §6, §7

Assay [6] deals with C. albicans (ATCC 10231). Description: MIC and synergy test (Kull method). As for the experimental part:
as §1, §2, §3, §4, §5, §6, §7

The test system of assay [7] is bacteria and fungi. Description: Antimicrobial and antifungal characteristics (MIC), general statement. The following applies: alone.

Consider `CC1CCC(C(C)C)C(O)C1` (racemic) [DLM, DL-Menthol], for which the “MIC of the compound acting alone (QA, QB)” value (“MIC … (QA, QB)” for short) was determined as 0.69% in assay [1], 1.39% in assay [2] and 0.69% in assay [3].
Consider `CCCCCCCC(=O)NO` [CHA, Capryl Hydroxamic Acid], for which the figures for the “MIC … (QA, QB)” value in assay [4], in assay [2] and in assay [3] were 0.031%, 0.031% and 0.125%, respectively.
`Cc1cc(O)ccc1C(C)C` [DBL, O-cymen-5-ol]: the “MIC … (QA, QB)” value in assay [2] was found to be 0.0625%.
With `CCCCCCCCC(O)CO` (stereo not shown) [DD], the “MIC … (QA, QB)” value in assay [4] was 0.0156% and 0.008%; in assay [1], 0.0625%; in assay [2], 0.0625% and 0.0312%; in assay [5], more than 2.5%; in assay [3], 0.0312% and 0.0156%.
In the case of `CCCCC(O)CO` (stereo not shown) [HD, 1,2-hexanediol], the “MIC … (QA, QB)” value in assay [4] was found to be 1.25%; in assay [1], 0.625%; in assay [2], 1.25%; in assay [5], 1.25%; in assay [3], 2.5%.
Turning to `CCCCCCOCC(O)CO` (stereo not shown) [HG, Hexylglycerine], the “MIC … (QA, QB)” value in assay [4] is given as 0.156%.
With `CCCCCCC(O)CO` (stereo not shown) [OD, 1,2 octanediol], the “MIC … (QA, QB)” value in assay [4] is 0.312%; in assay [5] it was 0.625%; in assay [3], 0.625%.
With `CCC(=O)O` [PA, Propionic Acid], the entries for the “MIC … (QA, QB)” value in assay [4] and in assay [1] were 0.078% and 0.20%, respectively.
Take `CC1COC(=O)O1` (stereo not shown) [PC, Propylene Carbonate]: the “MIC … (QA, QB)” value in assay [4] is 1.56% and 3.12% and 0.78%; in assay [1], 3.12% and 1.56%; in assay [6], 6.25%; in assay [2], 3.12% and 1.56% and 6.25%; in assay [5], 3.12%; in assay [3], 12.5% and 3.12% and 6.25%. Further, the “antimicrobial and antifungal characteristics (MIC)” value in assay [7] was “no significant antimicrobial and antifungal characteristics”.
Consider `OCCc1ccccc1` [PhA, Phenethyl Alcohol], for which the “MIC … (QA, QB)” value in assay [1] came out at 0.156%; in assay [6], 0.625%.
For the molecule `CCCCCCCCCCC=O` [UND, Undecanal], the “MIC … (QA, QB)” value in assay [4] is given as 1.25%.
Take Alkyl Glucoside [AG6206]: the “MIC … (QA, QB)” value in assay [5] was 3.12%.
